Laboratory results taken from patent publication EP0994713B1, “USE OF A 7alpha-METHYL-17alpha-ETHYNYL-ESTRANE DERIVATIVE FOR THE TREATMENT OF ATHEROSCLEROSIS” (Akzo Nobel N.V., priority 1997, dated 1998).

Tests used:
Type in all cases: in vivo, New Zealand White rabbits
[1] = test system: female ovariectomized rabbits; assay: Overall atherosclerotic lesion formation, cholesterol fed rabbit model; conditions: Example 3: Org OD14 0.6 mg orally daily; estradiol decanoate 300 µg s.c. weekly
Method: (§1) The model is considered relevant to the human atherosclerotic process, because the cellular events occurring during the development of the atherosclerotic lesions during the atherogenic diet are similar to those observed in different stages of atherosclerotic processes in coronary arteries.
(§2) In addition to example 2 an additional experiment was performed with two lower doses of Org OD14 and a higher dose of estradiol decanoate. […] The procedures were identical to those in example 2.
(§3) Three weeks prior to the start of the experiment the animals were ovariectomized. At the start of the experiment the carotid artery was de-endothelialised using the air-drying technique. The normal rabbit chow was replaced by the atherogenic diet except for the control group which received during the experiment the normal rabbit chow.
(§4) The treatments (table II) of group 1, 2, 3 and 4 were daily administered orally as a tablet, prepared as in example 1. The doses of Org OD14 per tablet, however, were 0.6 mg and 0.15 mg respectively. Group 5 was on treatment with 17β-estradiol decanoate (300 µg in 1 ml arachis oil injected subcutaneously once a week). Twenty weeks after the start of the experiment was ended in the same manner as described in example 2.
In example 3 we tested Org OD14 at two lower doses (0.6 and 0.15 mg orally once daily) and estradiol decanoate at a higher dose (300 µg s.c. once weekly). […]

[2] = test system: female ovariectomized rabbits; assay: Uterus weight (estrogenic activity), cholesterol fed rabbit model; conditions: for Uterus weight per 100 grams body weight: cholesterol diet, OVX, necropsy at 20 weeks
Method: as §1
(§5) An experiment was performed with 7 groups of sexually mature, virgin female New Zealand White rabbits (Harlan, Zeist, The Netherlands), age 7-9 months and weighing approximately 3 kg (number of […] per group: 13-14). During the acclimatization period the rabbits were fed a diet of standard commercial rabbit chow LKK20 (Hope Farms, Woerden, The Netherlands). Three weeks prior to the start of the experiment the animals were anaesthetized and underwent bilateral ovariectomy (OVX) or were sham operated. After three weeks, at the start of the experiment, the rabbits were randomized over the treatment groups. In all animals de-endothelialisation of a segment of the left carotid artery was applied by using the air-drying technique (Fishman, J.A. et al., "Endothelial regeneration in the rat carotid artery and the significance of endothelial denudation in the pathogenesis of myointimal thickening", Lab. Invest. 1975, 32, 339-351; and Lafont, A. et al., "Restenosis and experimental angioplasty: Intimal, medial and adventitial changes associated with constructive remodeling", Circulation Research, 1995, 76, 996-1002)
(§6) The animals were randomly allocated into 7 experimental groups using a randomized block design. The groups were fed an atherogenic diet (commercial rabbit chow (LKK20) enriched with 0.4 grams cholesterol, 3.75 grams coconut oil and 3.75 grams peanut oil per 100 grams). One group was fed the standard rabbit chow (LKK20). Food intake was restricted to 80 grams daily.
(§7) The treatments (Table I) were daily administered orally as a tablet, prepared as in Example 1. Groups 1, 2 and 3 were on a daily placebo treatment. Groups 4-5 were treated with 7α-methyl-17α-ethynyl-17β-hydroxy-estra-5(10)-en-3-one (OD-14; tibolone; 6 or 2 mg daily); group 6 with 17β-estradiol (4 mg daily). Group 7 was on treatment with 17β-estradiol decanoate (150 µg in 1 ml arachis oil injected subcutaneously once a week).
(§8) During the experiment blood samples were drawn out of the central ear artery after sedation with Hypnorm (0.1 ml i.m.) (Janssen Pharmaceutics, Beerse, Belgium) before the daily treatment, at week 4,8,12,16 and 20, to monitor the plasma cholesterol levels and to measure, at week 17, plasma estradiol levels and plasma tibolone levels. Twenty weeks after the start of the experiment animals were anaesthetized by an i.m. injection of Hypnorm (0.5 ml/kg). After blood sampling the rabbits were killed by exsanguination and the aortic arch, uterus and carotid artery removed for further analyses.
as §2, §3, §4
(§9) After 20 weeks of diet and of daily treatment, necropsy was performed to determine the accumulation of cholesterol and fatty streaks in the aortic arch and the advanced lesions in the carotid artery. […]

[3] = Body weight at necropsy, cholesterol fed rabbit model; conditions: cholesterol diet, OVX, necropsy at 20 weeks
Method: as §1, §5, §6, §7, §8, §2, §3, §4, §9

[4] = test system: female ovariectomized rabbits; assay: Fatty streaks in the aortic arch (Sudan Red, image analysis); conditions: for Fatty streak in aortic arch: cholesterol diet, OVX, necropsy at 20 weeks
Method: as §1, §5, §6, §7, §8, §2, §3, §4
The aortic arch was dissected free, opened longitudinally and fixed in 2% paraformaldehyde. The tissue was then stained for lipids using 0.3% (w/v) Sudan Red. Colour photographs were taken of all segments. […]

[5] = Example 2, Group 4: 6 mg orally daily
[6] = Example 2, Group 5: 2 mg orally daily
[7] = Example 3: 0.15 mg orally once daily
[8] = Example 3: 0.6 mg orally once daily

C#C[C@]1(O)CC[C@H]2[C@@H]3[C@H](C)CC4=C(CCC(=O)C4)[C@H]3CC[C@@]21C [Org OD14, 7α-methyl-17α-ethynyl-17β-hydroxy-estra-5(10)-en-3-one]
atherosclerotic lesion formation (in words) [1]: still nearly completely prevented | Uterus weight per 100 grams body weight [2, 5]: 0.24 ±0.06 per 100 grams body weight | Uterus weight per 100 grams body weight [2, 6]: 0.29 ±0.03 per 100 grams body weight | uterus weight increase (estrogenic activity, in words) ([2]; Example 2: Org OD14 2 and 6 mg per day): to a similar extent as both estradiol treatments | increase of uterus weight ([2]; Example 3, text: Org OD14 (0.15 mg dose per Table IV), versus placebo 0.054): 144% | uterus weight ([2]; Example 3, text: Org OD14 (0.15 mg dose per Table IV), placebo 0.054): 0.132 grams per 100 grams body weigh | Uterus weight per 100 grams body weight [2, 7]: 0.132 ±0.013 per 100 grams body weight | Uterus weight per 100 grams body weight [2, 8]: 0.224 ±0.016 per 100 grams body weight | Body weight [3, 5]: 2758 ± 41 grams | Body weight [3, 6]: 2815 ± 50 grams | Body weight [3, 7]: 2850 ± 42 grams | Body weight [3, 8]: 3008 ± 58 grams | Fatty streak in aortic arch [4, 5]: 1.3 ± 0.8 % of arcus covered | Fatty streak in aortic arch [4, 6]: 1.4 ± 0.7 % of arcus covered | Fatty streak formation in the aortic arch (in words) ([4]; Example 2: Org OD14 2 and 6 mg, E2 4 mg orally daily, E2D 150 µg s.c. weekly): (nearly) completely prevented the fatty streak formation | Fatty streak in aortic arch [4, 7]: 23.5 ± 5.3 % of arcus covered | Fatty streak in aortic arch [4, 8]: 5.9 ± 2.4 % of arcus covered
